Legend:
[1] = Selectivity ratio of IC50 for inhibition of MARK3 (unknown origin) to IC50 for inhibition of NUAK1 (unknown origin)
[2] = Protein binding in mouse plasma assessed as fraction unbound at 10 uM incubated for 6 hrs with rotation by dialysis based LC-MS/MS analysis; assay type: ADME, cell-free
[3] = Unbound brain-to-plasma concentration ratio (Kp,uu, brain) in ICR mouse at 2.5 mg/kg, iv and measured upto 6 hrs by LC-MS/MS analysis; assay type: ADME, organism-based; conditions: read-out: K(p,uu,brain)

Row | Ratio IC50 [1] | fraction unbound at 6 h, 10 µM [2] | Kp uu at 6 h [3] | SMILES
1 | 2290 |  |  | CC(C)N1CCN(c2ccc(Nc3ncc4ccn(CC5CCOC(C)(C)C5)c4n3)cc2)CC1 (stereo not given)
2 | > 11 |  |  | Cc1cc(=O)n(C2CCCC2)c2nc(Nc3ccc(N4CCNCC4)cc3)ncc12
3 |  | 0.006 | 0.036 | CN1CCN(c2ccc(Nc3ncc4cc(C#N)c(=O)n(C5CCCC5)c4n3)cc2)CC1 [NARAZACICLIB]

Row | SMILES | Ratio IC50 [1] | fraction unbound at 6 h, 10 µM [2] | Kp uu at 6 h [3]
4 | CN1C2CC1CN(c1ccc(Nc3ncc4ccn(CC5CCOCC5)c4n3)cc1)C2 | 2000 |  | 
